From US8658690B2, “Use of novel compounds from fruiting body of Antrodia camphorata for treating an inflammatory disorder” (Well Shine Biotechnology Development Co., Ltd., priority 2008, dated 2014)
In brackets after ≈: the same amount, converted by molar mass.

Key:
Format in all cases: cell-based, murine
TNF-α [1] = test: Spontaneous TNF-α secretion by RAW264.7 cells, sandwich ELISA of supernatants; details: 48 hours; for TNF-α (pg/mL) secretion: spontaneous, control 88 ± 45
Procedure: (§1) The cytokine levels in culture supernatants were measured by sandwich ELISA methods as described by Chen and Lin (Chen, M. L. et al., Int. Arch. Allergy Immunol. 2007, 143, 21-30). More specifically, the anti-cytokine antibodies (PharMingen, San Diego, Calif.) were coated in the 96-well plates (Nunc, Roskilde, Denmark) after overnight incubation at 4° C. and having been blocked with 1% BSA PBS buffer for 30 min. The samples and standards (recombinant mouse cytokines, PharMingen) were added to the 96-well plates for 2 hours incubation. The biotin-conjugated antibodies (biotinylated rat anti-mouse cytokine monoclonal antibodies, PharMingen) were added and incubated. After washing, streptavidin-conjugated peroxidase was added for 1 hour. The substrates, 2,2′-azino-bis-3-ethyl-benzthiazoline-6-sulfonic acid (ABTS, Sigma), were added to each well for 20 min. The plates were read in a microplate autoreader (Microplate autoreader; Bio-Tek Instruments, Winooski, Vt.) at 405 nm.
(§2) To evaluate the immunomodulatory effects of these new compounds, the in vitro production of cytokines in RA W264.7 cells were treated without or with the compounds of the invention at different concentrations for 48 hours. The supernatants were collected for TNF-α assay, and cells were collected for viability analysis by MTT method.

[2] = test system: RAW264.7 macrophage cells; test: Cell viability by MTT method in RAW264.7 cells treated with compounds for 48 hours (no LPS); details: RAW264.7, no LPS; for Cell viability (%): mean ± SD
Procedure: as §2

IL-6 = IL-6 secretion in LPS-stimulated RAW264.7 cells, ELISA; details: for IL-6 (pg/mL) secretion: LPS control 238 ± 86; for IC50: Mus musculus, LPS-stimulated RAW264.7, 50 ng/mL LPS 48 hours, highest tested concentration 10 μg/mL, read-out: IC50 of IL-6 production
Procedure: as §1
(§3) IL-6, a proinflammatory cytokine which is a useful marker of infection, is secreted by macrophages in many infectious and inflammatory states, including cardiac surgery, cardiogenic shock, coronary bypass and bacteria sepsis (Kantar, M. et al., Eur. J. Pediatr. 2000, 159, 156-157). Serum concentration of IL-6 has been reported to correlate with disease severity (Pathan, N. et al., Lancet 2004, 363, 203-209). The productions of IL-6 from LPS-stimulated macrophages were measured to evaluate the anti-inflammation effect of the compounds. The cells were pretreated with compounds isolated from A. camphorata for 30 min and then stimulated with 50 ng/mL LPS for 48 hours. The supernatants were collected for TNF-α and IL-6 assay, and the cells were collected for viability analysis by MTT method.

TNF-α [3] = test: TNF-α secretion in LPS-stimulated RAW264.7 cells, ELISA; details: 50 ng/mL LPS 48 hours, LPS control 3.81 ± 0.93
Procedure: as §1, §3

[4] = test system: LPS-stimulated RAW264.7 macrophage cells; test: Cell viability by MTT method in LPS-stimulated RAW264.7 cells; details: 30 min pretreatment then 50 ng/mL LPS 48 hours
Procedure: as §3

[5] = 0.5 μg/mL, 50 ng/mL LPS 48 hours
[6] = 10 μg/mL, 50 ng/mL LPS 48 hours

Compound	TNF-α (pg/mL) secretion (TNF-α [1]; 0.5 μg/mL) [pg/mL]	TNF-α (pg/mL) secretion (TNF-α [1]; 1 μg/mL) [pg/mL]	TNF-α (pg/mL) secretion (TNF-α [1]; 2 μg/mL) [pg/mL]	TNF-α (pg/mL) secretion (TNF-α [1]; 5 μg/mL) [pg/mL]	TNF-α (pg/mL) secretion (TNF-α [1]; 10 μg/mL) [pg/mL]	Cell viability (%) ([2]; 0.5 μg/mL)	Cell viability (%) ([2]; 1 μg/mL)	Cell viability (%) ([2]; 2 μg/mL)	Cell viability (%) ([2]; 5 μg/mL)	Cell viability (%) ([2]; 10 μg/mL)	IL-6 (pg/mL) secretion (IL-6; [5]) [pg/mL]	IL-6 (pg/mL) secretion (IL-6; 1 μg/mL, 50 ng/mL LPS 48 hours) [pg/mL]	IL-6 (pg/mL) secretion (IL-6; 5 μg/mL, 50 ng/mL LPS 48 hours) [pg/mL]	IL-6 (pg/mL) secretion (IL-6; [6]) [pg/mL]	IC50 (IL-6) [µg/mL]	TNF-α (ng/mL) secretion (TNF-α [3]; 0.5 μg/mL) [ng/mL]	TNF-α (ng/mL) secretion (TNF-α [3]; 1 μg/mL) [ng/mL]	TNF-α (ng/mL) secretion (TNF-α [3]; 5 μg/mL) [ng/mL]	TNF-α (ng/mL) secretion (TNF-α [3]; 10 μg/mL) [ng/mL]	Cell viability (%) ([4]; 0.5 μg/mL)	other results
CC(C)=CCOc1ccc([C@@H]2C(=O)NC(=O)[C@H]2CC(C)C)cc1 (relative stereo) [Compound 1, trans-3-Isobutyl-4-[4-(3-methyl-2-butenyloxy)phenyl]pyrrolidine-2,5-dione]	117 ± 31	145 ± 44	183 ± 89	212 ± 60	188 ± 41	103 ± 2	101 ± 3	108 ± 6	100 ± 10	99 ± 7	213 ± 88	211 ± 99	144 ± 64	103 ± 61	10 (≈ 31.7 µM)	3.69 ± 0.39	3.92 ± 0.39	3.68 ± 0.25	3.65 ± 0.17	105 ± 3	spontaneous TNF-α secretion by RAW264.7 cells (in words) (TNF-α [1]; 0.5˜5 μg/mL): significantly increased; effect on cell viability (in words) [2]: without affecting cell viability; IL-6 production in LPS-stimulated cells (in words) (IL-6; 50 ng/mL LPS 48 hours): significantly decreased; Cell viability (%) ([4]; 1 μg/mL): 106 ± 4%; Cell viability (%) ([4]; 5 μg/mL): 105 ± 3%; Cell viability (%) ([4]; 10 μg/mL): 102 ± 4%
CC(C)C[C@@H]1C(=O)N(O)C(=O)[C@H]1c1ccc(O)cc1 (relative stereo) [Compound 2, trans-1-Hydroxy-3-(4-hydroxyphenyl)-4-isobutylpyrrolidine-2,5-dione]	108 ± 28	97 ± 13	105 ± 23	96 ± 8	128 ± 70	106 ± 7	100 ± 5	100 ± 5	94 ± 6	90 ± 4	216 ± 102	224 ± 110	210 ± 96	191 ± 68	54 (≈ 205 µM)	3.34 ± 0.58	4.04 ± 0.46	4.76 ± 0.65	3.66 ± 0.67	110 ± 5	Cell viability (%) ([4]; 1 μg/mL): 111 ± 6 %; Cell viability (%) ([4]; 5 μg/mL): 111 ± 8 %; Cell viability (%) ([4]; 10 μg/mL): 109 ± 2 %
CC(C)C[C@H]1C(=O)OC(=O)[C@H]1c1ccc(O)cc1 (relative stereo) [Compound 3, cis-3-(4-Hydroxyphenyl)-4-isobutyldihydrofuran-2,5-dione]	55 ± 2	74 ± 7	68 ± 7	68 ± 26	77 ± 35	91 ± 9	87 ± 8	80 ± 9	72± 11	67 ± 15	214 ± 82	234 ± 109	185 ± 76	147 ± 53	17 (≈ 68.5 µM)	3.17 ± 0.70	3.64 ± 0.84	3.88 ± 0.37	3.90 ± 0.10	105 ± 6	Cell viability (%) ([4]; 1 μg/mL): 104 ± 6%; Cell viability (%) ([4]; 5 μg/mL): 99 ± 3%; Cell viability (%) ([4]; 10 μg/mL): 91 ± 4 %
CC(C)CC1=C(c2ccc(O)cc2)C(=O)NC1=O [Compound 4, 3-(4-Hydroxyphenyl)-4-isobutyl-1H-pyrrole-2,5-dione]	91 ± 38	83 ± 22	105 ± 13	118 ± 23	104 ± 25	97 ± 13	99 ± 4	97 ± 5	94 ± 7	81 ± 8	194 ± 81	257 ± 40	195 ± 83	169 ± 63	18 (≈ 73.4 µM)	2.98 ± 0.24	3.22 ± 0.35	3.72 ± 0.23	3.12 ± 0.61	105 ± 6	Cell viability (%) ([4]; 1 μg/mL): 103 ± 5%; Cell viability (%) ([4]; 5 μg/mL): 97 ± 5%; Cell viability (%) ([4]; 10 μg/mL): 92 ± 8%
CC(C)CC1=C(c2ccc(O)cc2)C(=O)OC1=O [Compound 5, 3-(4-Hydroxyphenyl)-4-isobutylfuran-2,5-dione]	100 ± 26	102 ± 30	90 ± 4	94 ± 19	106 ± 5	101 ± 7	102 ± 5	99 ± 6	95 ± 9	86 ± 8	221 ± 102	227 ± 94	225 ± 68	215 ± 56	96 (≈ 390 µM)	3.44 ± 0.31	4.06 ± 1.14	4.67 ± 1.09	3.63 ± 0.58	106 ± 4	Cell viability (%) ([4]; 1 μg/mL): 105 ± 2 %; Cell viability (%) ([4]; 5 μg/mL): 102 ± 2%; Cell viability (%) ([4]; 10 μg/mL): 100 ± 3%
COC(=O)/C(CC(C)C)=C(\C(=O)OC)c1ccc(O)cc1 [Compound 6, Dimethyl 2-(4-hydroxyphenyl)-3-isobutylmaleate]	100 ± 34	114 ± 41	90 ± 14	110 ± 22	116 ± 4	100 ± 6	99 ± 7	102 ± 6	95 ± 8	96 ± 11	235 ± 106	215 ± 89	209 ± 89	179 ± 91	25 (≈ 85.5 µM)	3.61 ± 0.22	3.70 ± 0.50	3.80 ± 0.53	3.32 ± 0.30	108 ± 6	Cell viability (%) ([4]; 1 μg/mL): 107 ± 7%; Cell viability (%) ([4]; 5 μg/mL): 106 ± 9%; Cell viability (%) ([4]; 10 μg/mL): 102 ± 10%
